In article PMC8074287, “Analgesic and Anticancer Activity of Benzoxazole Clubbed 2-Pyrrolidinones as Novel Inhibitors of Monoacylglycerol Lipase” (Molecules, 2021):
Where two headings read alike, the source gives them in different places.

Tests used:
MAGL = settings: cited from earlier work
hMAGL = molecular target: T1, hMAGL (Homo sapiens, UniProt Q99685); assay: Human MAGL inhibition assay (Cayman's assay kit)
T1 sequence (Q99685 1-303): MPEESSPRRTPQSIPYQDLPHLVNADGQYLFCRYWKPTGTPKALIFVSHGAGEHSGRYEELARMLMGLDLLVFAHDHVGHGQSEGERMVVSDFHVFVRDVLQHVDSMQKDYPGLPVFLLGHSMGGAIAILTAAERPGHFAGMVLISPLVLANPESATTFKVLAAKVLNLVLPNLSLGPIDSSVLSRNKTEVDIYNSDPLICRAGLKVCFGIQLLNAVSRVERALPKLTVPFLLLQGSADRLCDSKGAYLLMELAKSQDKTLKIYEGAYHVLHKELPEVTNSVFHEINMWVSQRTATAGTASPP

hFAAH = molecular target: T2, hFAAH (Homo sapiens, UniProt O00519); assay: Human FAAH inhibition assay (Cayman's assay kit); settings: IC50, mean ± SEM (n = 3)
T2 sequence (O00519 1-579): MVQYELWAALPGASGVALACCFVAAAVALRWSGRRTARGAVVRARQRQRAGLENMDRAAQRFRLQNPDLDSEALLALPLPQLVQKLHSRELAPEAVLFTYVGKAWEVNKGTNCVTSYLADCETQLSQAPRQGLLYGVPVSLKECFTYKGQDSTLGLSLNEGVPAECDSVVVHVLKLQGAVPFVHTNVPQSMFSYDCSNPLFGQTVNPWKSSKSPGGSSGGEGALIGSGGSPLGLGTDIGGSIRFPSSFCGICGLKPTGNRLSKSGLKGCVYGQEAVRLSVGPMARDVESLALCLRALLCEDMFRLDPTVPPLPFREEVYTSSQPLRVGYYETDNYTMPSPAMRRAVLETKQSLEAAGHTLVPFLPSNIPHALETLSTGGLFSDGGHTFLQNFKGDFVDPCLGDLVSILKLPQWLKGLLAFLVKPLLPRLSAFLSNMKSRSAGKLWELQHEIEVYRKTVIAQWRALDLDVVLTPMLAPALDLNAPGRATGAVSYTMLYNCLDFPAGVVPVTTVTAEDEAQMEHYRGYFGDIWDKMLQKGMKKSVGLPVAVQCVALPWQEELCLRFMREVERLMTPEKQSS

FAAH = test system: FAAH; parameters: method as in PMID 15456244; settings: read-out: FAAH IC50, value reported; cited from earlier work
[1] = test system: formalin-induced nociception; assay: Formalin-induced analgesic (nociception) test; assay type: in vivo, Male Wistar rats; settings: 100 mg/kg i.p., 30 min before formalin
From the text: The formalin-induced analgesic test is an extensively acknowledged animal nociception model. In order to evaluate both central and peripheral effects of the compound (20), formalin-induced nociception model was selected for analgesic activity. The formalin induced behavioral response comprises two typical phases, stage I and II. Stage I persists up to five minutes after formalin injection and is characterized by acute pain with vigorous licking and biting of the injected site. Stage I consists the action formalin on afferent C-fiber nociceptors. While Stage II starts 10–30 min after formalin injection and persists till 60 min, characterized by periodic licking and biting of the injected site. Stage II imitates the action of central sensitization of the spinal dorsal horn neurons.
Figure 5 Formalin-induced analgesic test; a dose of the test compound 20 (5, 10, 30, and 50 mg/kg, p.o, suspended in 0.5% CMC) was administered 4 h before formalin injection (50 µL, 2.5%). Reference drug, gabapentin (100 mg/kg, i.p, dissolved in 0.9% normal saline) was injected 30 min before formalin injection. Total paw licking and biting duration, Stage I (white bar, 0–5 min) and stage II (black bar, 10–30 min) was recorded as a measure of pain behavior. Data is represented as mean ± SEM from a group of 10 animals. * p < 0.05, ** p < 0.01, p > 0.05 (NS, nonsignificant) vs. control (vehicle). GBP: Gabapentin; D5, D10, D30, andD50 are the dose concentrations of test compound 20.
Male Wistar rats (180–200 g) were obtained with the permission of IAEC (proposal number 1048) from Jamia Hamdard, New Delhi, India. The results of test compound 20 and reference drug, Gabapentin (GBP), were statistically compared with the control group.

[2] = earlier work of the authors' group

| Structure (SMILES) | IC50 (MAGL) | melting point | IC50 (hMAGL) | also measured |
| --- | --- | --- | --- | --- |
| O=C(Nc1cccc(-c2ccccc2)c1)OC1CCCCC1 [URB602] | 28000 nM | – | – | – |
| O=C1CC(c2nc3ccccc3o2)CN1c1ccccc1 (centres unmarked) [Compound 12, 4-(Benzo[d]oxazol-2-yl)-1-phenylpyrrolidin-2-one] | – | 148 to 150 °C | > 100 µM | – |
| O=C1CC(c2nc3ccccc3o2)CN1c1ccc(F)c(Cl)c1 (centres unmarked) [Compound 16, 4-(Benzo[d]oxazol-2-yl)-1-(3-chloro-4-fluorophenyl)pyrrolidin-2-one] | – | 187 to 189 °C | 0.034 ± 0.0017 µM | IC50 (hFAAH): 25 ± 2.3 µM |
| O=C(Cn1nnc2ccccc21)Nc1ccc(-c2nc3ccccc3s2)cc1 [ZINC24092691 analogue] | – | – | – | IC50 (MAGL; [2]): 6.5 nM |
| Cc1ccccc1N1CC(c2nc3ccccc3o2)CC1=O (centres unmarked) [Compound 13, 4-(Benzo[d]oxazol-2-yl)-1-(o-tolyl)pyrrolidin-2-one] | – | 162 to 164 °C | 85 ± 1.5 µM | – |
| O=C1CC(c2nc3ccccc3o2)CN1Cc1ccccc1 (centres unmarked) [Compound 11, 4-(Benzo[d]oxazol-2-yl)-1-benzylpyrrolidin-2-one] | – | 160 to 162 °C | > 100 µM | – |
| Cc1ccc(N2CC(c3nc4ccccc4o3)CC2=O)cc1 (centres unmarked) [Compound 14, 4-(Benzo[d]oxazol-2-yl)-1-(p-tolyl)pyrrolidin-2-one] | – | 164 to 166 °C | 72 ± 2.1 µM | – |
| O=C(Cn1nnc2ccccc21)Nc1ccc(-c2nc3ccccc3s2)cc1 [ZINC24092691] | – | – | – | IC50 (MAGL; [2]): 10 nM |
| O=C(N1CCN(C(c2ccc(F)cc2)c2ccc(F)cc2)CC1)n1cncn1 [SAR629] | 1.1 nM | – | – | – |
| COc1ccc(N2CC(c3nc4ccccc4o3)CC2=O)cc1 (centres unmarked) [Compound 18, 4-(Benzo[d]oxazol-2-yl)-1-(4-methoxyphenyl)pyrrolidin-2-one] | – | 177 to 179 °C | 0.042 ± 0.0015 µM | IC50 (hFAAH): 37 ± 2.2 µM |
| COc1ccc(N2CC(c3nc4ccccc4[nH]3)CC2=O)cc1 (centres unmarked) [compound 25] | – | – | – | IC50 (MAGL; [2]): 9.4 nM |
| NC(=O)c1cccc(-c2cccc(OC(=O)NC3CCCCC3)c2)c1 [URB597] | – | – | – | IC50 (FAAH): 4.6 nM |
| O=C1CC(c2nc3ccccc3o2)CN1c1ccc(Cl)cc1 (centres unmarked) [Compound 15, 4-(Benzo[d]oxazol-2-yl)-1-(4-chlorophenyl)pyrrolidin-2-one] | – | 174 to 176 °C | 0.065 ± 0.0032 µM | IC50 (hFAAH): 28 ± 1.8 µM |
| COc1nn(-c2ccc(NC(=O)OCc3ccccc3)c(C)c2)c(=O)o1 [CAY10499, reference compound] | 144 nM | – | – | IC50 (hMAGL; read-out: hMAGL, IC50, mean ± SEM (n = 3)): 0.415 ± 0.0032 µM |
| CCCCNC(=O)Oc1ccc(C2=NCCS2)cc1 [SPB01403] | 31000 nM | – | – | – |
| Cc1ncccc1-c1cc(F)cc(N2C[C@H](N3CCN(c4ncccn4)CC3)CC2=O)c1 [R(3t)] | 3.6 nM | – | – | – |
| NCC1(CC(=O)O)CCCCC1 [GBP, Gabapentin, reference compound] | – | – | – | paw licking and biting, Stage II ([1]; vs control): significant reduction of paw licking and biting; analgesic effect, Stage I (acute nociception) ([1]; vs control (0.5% CMC)): little analgesic effects |
| O=C1CC(c2nc3ccccc3o2)CN1c1ccc(O)cc1 (centres unmarked) [Compound 17, 4-(Benzo[d]oxazol-2-yl)-1-(4-hydroxyphenyl)pyrrolidin-2-one] | – | 242 to 245 °C | 62 ± 2.7 µM | – |
| O=C(N1CCN(C(c2ccccc2)c2ccccc2)CC1)n1nnc2ccccc21 [ML30] | 0.54 nM | – | – | – |
| O=C(O[C@H](CO)C(F)(F)F)N1C[C@@H]2C(c3ccn(-c4ccc(F)cc4)n3)[C@@H]2C1 (some centres unmarked) [PF-06795071] | 3 nM | – | – | – |
| O=C(N1CCC(C(c2ccc3c(c2)OCO3)c2ccc3c(c2)OCO3)CC1)n1cncn1 [JJKK-048, {4-[bis-(benzo[d][1,3]dioxol-5-yl)methyl]-piperidin-1-yl}(1H-1,2,4-triazol-1-yl)methanone] | 0.363 nM | – | – | selectivity for MAGL over FAAH (MAGL): more than 10,000 fold |
| O=C(OC(C(F)(F)F)C(F)(F)F)N1CCC(C(O)(c2ccc3c(c2)OCO3)c2ccc3c(c2)OCO3)CC1 [KML29] | 3.6 nM | – | – | selectivity for MAGL over FAAH (MAGL): more than 10,000 fold |
